≈ marks a conversion by molar mass, not a printed value.
Legend:
[1] = Plasma protein binding by equilibrium dialysis; assay type: in vitro ADME; conditions: 37 °C; for Plasma Protein Binding Bound %: 5 μM, 6 h; for fraction unbound at 6 h, 5 μM: plasma, read-out: Plasma Protein Binding Free %
Procedure: Equilibrium dialysis was used to determine the plasma protein binding. All of the test compounds were treated in triplicate by RED Rapid Equilibrium Dialysis Device (Thermo Scientific, Waltham, MA, USA). In brief, the initial compound concentration (5 μM) in the plasma chamber was first set, followed by the addition of phosphate buffered saline (PBS) to the receiver chamber. The Equilibrium Dialysis Device was allowed to shake for 6 h in a 37 °C incubator. Then, 25 μL solution was sampled from the plasma and PBS chambers, respectively, and they were diluted with either blank PBS or plasma to achieve a 1:1 ratio of plasma: PBS for all samples. The concentrations of the tested compounds in the plasma and PBS chambers were determined by LC–MS/MS. The fraction bound was calculated as ([plasma]—[PBS])/[plasma].

[2] = Metabolic stability assay in pooled human liver microsomes; assay type: in vitro ADME; conditions: pH 7.4, 37 °C, NADPH, read-out: Half-Life in Human Hepatic Microsomes
Procedure: Each compound was incubated in duplicate with pooled human liver microsomes at 37 °C. The tested compounds were pre-incubated with pooled human liver microsomes in phosphate buffer (pH 7.4) for 5 min in a shaking water bath at 37 °C. The reaction was initiated by adding a NADPH-generating system and incubated for 0, 15, 30, 45, and 60 min. The reaction was stopped by transferring the incubation mixture to CH3CN/MeOH. Samples were then mixed and centrifuged. Supernatants were used for HPLC–MS/MS analysis. Data were calculated as percent parent compounds remaining by assuming zero-minute time point peak area ratio (analyte/IS) as 100% and dividing remaining time point peak area ratios by the zero-minute time point peak area ratio. Data were subjected to fit a first-order decay model to calculate both the slope and half-life.

MRSA 4 = experiment: MIC determination (LB agar dilution), clinical MRSA strain 4; assay type: cell-based; conditions: Staphylococcus aureus, at least two replicates
Procedure: (§1) All of the tested compounds were prepared to different concentrations with methanol, and 150 μL of the respective methanol solution was used to mix with 15 mL LB (Luria–Bertani) medium with 1% agar in each Petri dish. Linezolid and PTM were used as reference compounds for comparison. In vitro bioassay for compounds was carried out using clinical strains of S. aureus, E. coli, and Klebsilla pneumoniae. The bacteria were cultivated in LB medium and incubated for 16 h at 37 °C, 250 rpm. The resulting bacteria were diluted to approximate 0.25 at OD600, which were further diluted 10_4-fold. The diluted bacteria (2 μL) were added to Petri dish containing the respective compounds. The resulting Petri dishes were incubated for 16 h at 37 °C. The determination of MIC is the concentration of Petri dishes with no visible growth of bacteria.

S. aureus ATCC 29213 = experiment: MIC determination (LB agar dilution), S. aureus ATCC 29213; assay type: cell-based; conditions: Staphylococcus aureus, ATCC29213, at least two replicates
Procedure: as §1

MRSA 3 = experiment: MIC determination (LB agar dilution), clinical MRSA strain 3; assay type: cell-based; conditions: Staphylococcus aureus, at least two replicates
Procedure: as §1

MSSA 1 = experiment: MIC determination (LB agar dilution), clinical MSSA strain 1; assay type: cell-based; conditions: Staphylococcus aureus, at least two replicates
Procedure: as §1

MSSA 2 = experiment: MIC determination (LB agar dilution), clinical MSSA strain 2; assay type: cell-based; conditions: Staphylococcus aureus, at least two replicates
Procedure: as §1

| Compound | MIC (MRSA 4) | MIC (S. aureus ATCC 29213) | MIC (MRSA 3) | MIC (MSSA 1) | MIC (MSSA 2) | Plasma Protein Binding Bound % [1] | fraction unbound at 6 h, 5 μM [1] | half-life [2] |
| --- | --- | --- | --- | --- | --- | --- | --- | --- |
| CC12CC34C=C(c5ccc6ccc7cccc8ccc5c6c78)C(=O)C(C)(CCC(=O)Nc5c(O)ccc(C(=O)O)c5O)C3C(CC1C4)O2 (stereo not shown) [1b, 6-pyrenyl PTM, reference compound] | – | – | – | – | – | 99.9% | 0.001 | 1.22 h |
| COC(=O)C=CC1=CC23CC4CC(OC4(C)C2)C3C(C)(CCC(=O)Nc2c(O)ccc(C(=O)O)c2O)C1=O (stereo not shown) [A1] | 2 µg/mL (≈ 3.81 µM) | 2 µg/mL (≈ 3.81 µM) | 2 µg/mL (≈ 3.81 µM) | 2 µg/mL (≈ 3.81 µM) | 2 µg/mL (≈ 3.81 µM) | – | – | – |
| CC12CC34C=C(C=CC(=O)OCCO)C(=O)C(C)(CCC(=O)Nc5c(O)ccc(C(=O)O)c5O)C3C(CC1C4)O2 (stereo not shown) [A2] | 16 µg/mL (≈ 28.8 µM) | 16 µg/mL (≈ 28.8 µM) | 16 µg/mL (≈ 28.8 µM) | 16 µg/mL (≈ 28.8 µM) | 16 µg/mL (≈ 28.8 µM) | – | – | – |
| CCCCOC(=O)C=CC1=CC23CC4CC(OC4(C)C2)C3C(C)(CCC(=O)Nc2c(O)ccc(C(=O)O)c2O)C1=O (stereo not shown) [A3] | 1 µg/mL (≈ 1.76 µM) | 1 µg/mL (≈ 1.76 µM) | 1 µg/mL (≈ 1.76 µM) | 1 µg/mL (≈ 1.76 µM) | 1 µg/mL (≈ 1.76 µM) | – | – | – |
| CCCCCCCCCCCCCCCCCCOC(=O)C=CC1=CC23CC4CC(OC4(C)C2)C3C(C)(CCC(=O)Nc2c(O)ccc(C(=O)O)c2O)C1=O (stereo not shown) [A5] | > 64 µg/mL | > 64 µg/mL | > 64 µg/mL | > 64 µg/mL | > 64 µg/mL | 99.2% | 0.008 | 1.27 h |
| CC12CC34C=C(C=CC(N)=O)C(=O)C(C)(CCC(=O)Nc5c(O)ccc(C(=O)O)c5O)C3C(CC1C4)O2 (stereo not shown) [A6] | 64 µg/mL (≈ 125 µM) | 64 µg/mL (≈ 125 µM) | 64 µg/mL (≈ 125 µM) | 64 µg/mL (≈ 125 µM) | 64 µg/mL (≈ 125 µM) | – | – | – |
| CN(C)C(=O)C=CC1=CC23CC4CC(OC4(C)C2)C3C(C)(CCC(=O)Nc2c(O)ccc(C(=O)O)c2O)C1=O (stereo not shown) [A7] | 16 µg/mL (≈ 29.7 µM) | 16 µg/mL (≈ 29.7 µM) | 16 µg/mL (≈ 29.7 µM) | 16 µg/mL (≈ 29.7 µM) | 16 µg/mL (≈ 29.7 µM) | – | – | – |
| CC(C)NC(=O)C=CC1=CC23CC4CC(OC4(C)C2)C3C(C)(CCC(=O)Nc2c(O)ccc(C(=O)O)c2O)C1=O (stereo not shown) [A8] | 32 µg/mL (≈ 57.9 µM) | 32 µg/mL (≈ 57.9 µM) | 32 µg/mL (≈ 57.9 µM) | 32 µg/mL (≈ 57.9 µM) | 32 µg/mL (≈ 57.9 µM) | – | – | – |
| CC(C)(C)NC(=O)C=CC1=CC23CC4CC(OC4(C)C2)C3C(C)(CCC(=O)Nc2c(O)ccc(C(=O)O)c2O)C1=O (stereo not shown) [A9] | 8 µg/mL (≈ 14.1 µM) | 8 µg/mL (≈ 14.1 µM) | 8 µg/mL (≈ 14.1 µM) | 8 µg/mL (≈ 14.1 µM) | 8 µg/mL (≈ 14.1 µM) | – | – | – |

Continued, in another order:

| MIC (MRSA 4) | MIC (S. aureus ATCC 29213) | MIC (MRSA 3) | MIC (MSSA 1) | MIC (MSSA 2) | Compound | Plasma Protein Binding Bound % [1] | fraction unbound at 6 h, 5 μM [1] | half-life [2] |
| --- | --- | --- | --- | --- | --- | --- | --- | --- |
| 8 µg/mL (≈ 17.2 µM) | 8 µg/mL (≈ 17.2 µM) | 8 µg/mL (≈ 17.2 µM) | 8 µg/mL (≈ 17.2 µM) | 8 µg/mL (≈ 17.2 µM) | C#CC1=CC23CC4CC(OC4(C)C2)C3C(C)(CCC(=O)Nc2c(O)ccc(C(=O)O)c2O)C1=O (stereo not shown) [B1] | – | – | – |
| 1 µg/mL (≈ 1.92 µM) | 1 µg/mL (≈ 1.92 µM) | 1 µg/mL (≈ 1.92 µM) | 1 µg/mL (≈ 1.92 µM) | 1 µg/mL (≈ 1.92 µM) | CCCCC#CC1=CC23CC4CC(OC4(C)C2)C3C(C)(CCC(=O)Nc2c(O)ccc(C(=O)O)c2O)C1=O (stereo not shown) [B2] | – | – | – |
| 1 µg/mL (≈ 1.92 µM) | 1 µg/mL (≈ 1.92 µM) | 1 µg/mL (≈ 1.92 µM) | 1 µg/mL (≈ 1.92 µM) | 1 µg/mL (≈ 1.92 µM) | CC(C)(C)C#CC1=CC23CC4CC(OC4(C)C2)C3C(C)(CCC(=O)Nc2c(O)ccc(C(=O)O)c2O)C1=O (stereo not shown) [B3] | – | – | – |
| 1 µg/mL (≈ 1.98 µM) | 1 µg/mL (≈ 1.98 µM) | 1 µg/mL (≈ 1.98 µM) | 1 µg/mL (≈ 1.98 µM) | 1 µg/mL (≈ 1.98 µM) | CC12CC34C=C(C#CC5CC5)C(=O)C(C)(CCC(=O)Nc5c(O)ccc(C(=O)O)c5O)C3C(CC1C4)O2 (stereo not shown) [B4] | – | – | – |
| 1 µg/mL (≈ 1.87 µM) | 1 µg/mL (≈ 1.87 µM) | 1 µg/mL (≈ 1.87 µM) | 1 µg/mL (≈ 1.87 µM) | 1 µg/mL (≈ 1.87 µM) | CCCCCC#CC1=CC23CC4CC(OC4(C)C2)C3C(C)(CCC(=O)Nc2c(O)ccc(C(=O)O)c2O)C1=O (stereo not shown) [B5] | – | – | – |
| 4 µg/mL (≈ 7.1 µM) | 4 µg/mL (≈ 7.1 µM) | 4 µg/mL (≈ 7.1 µM) | 4 µg/mL (≈ 7.1 µM) | 4 µg/mL (≈ 7.1 µM) | CC12CC34C=C(C#CC5(O)CCCCC5)C(=O)C(C)(CCC(=O)Nc5c(O)ccc(C(=O)O)c5O)C3C(CC1C4)O2 (stereo not shown) [B6] | – | – | – |
